Measurements as given in US9695155B2, “Herbicidal substituted pyrimidinyloxy benzene compounds” (E. I. DU PONT DE NEMOURS AND COMPANY, priority 2013, dated 2017).

Assays:
giant foxtail [1] = experiment: Test A preemergence; type: in vivo, Setaria faberii; conditions: Setaria faberi, pre-emergence, 240 h
How it was run: (§1)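 Visual 0–100 rating (100 = complete control) taken about 10 d post-treatment relative to untreated checks. Preemergence: directed soil spray on sown loam/sand pots. Postemergence: seedlings 2–10 cm, 1–2 leaf. Non-phytotoxic solvent formulation with surfactant.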

large (Lg) crabgrass [2] = experiment: Test A preemergence; type: in vivo, Digitaria sanguinalis; conditions: Digitaria sanguinalis, pre-emergence, 240 h
How it was run: as §1

yellow nutsedge = experiment: Test C postemergence; type: in vivo, Cyperus esculentus; conditions: Cyperus, post-emergence
How it was run: (§2)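 Visual ratings on a 0–100 scale (100 = complete control) were made versus untreated controls after 13–15 greenhouse days. Chemicals in a surfactant-containing non-phytotoxic solvent were applied either preemergence to seeds in loam–sand soil or postemergence to 1- to 4-leaf plants 2–18 cm tall.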

wild oat = experiment: Test C postemergence; type: in vivo, Avena fatua; conditions: Avena fatua, post-emergence
How it was run: as §2

large (Lg) crabgrass [3] = experiment: Test C postemergence; type: in vivo, Digitaria sanguinalis; conditions: Digitaria sanguinalis, post-emergence
How it was run: as §2

waterhemp = experiment: Test C postemergence; type: in vivo, Amaranthus rudis; conditions: Amaranthus tuberculatus, post-emergence
How it was run: as §2

johnsongrass = experiment: Test C postemergence; type: in vivo, Sorghum halepense
How it was run: as §2

morningglory [4] = experiment: Test A postemergence; type: in vivo, Ipomoea spp.; conditions: Ipomoea, post-emergence, 240 h, 0 to 100 scale where 0 is no effect and 100 is complete control, read-out: Plant response rating, Morningglory
How it was run: as §1

blackgrass = experiment: Test C postemergence; type: in vivo, Alopecurus myosuroides; conditions: Alopecurus myosuroides, post-emergence
How it was run: as §2

giant foxtail [5] = experiment: Test C postemergence; type: in vivo, Setaria faberii; conditions: Setaria faberi, post-emergence
How it was run: as §2

chickweed = experiment: Test C postemergence; type: in vivo, Stellaria media; conditions: Stellaria media, post-emergence
How it was run: as §2

Italian ryegrass = experiment: Test C postemergence; type: in vivo, Lolium multiflorum; conditions: Lolium multiflorum, post-emergence
How it was run: as §2

morningglory [6] = experiment: Test A preemergence; type: in vivo, Ipomoea spp.
How it was run: as §1

corn = experiment: Test C postemergence; type: in vivo, Zea mays; conditions: Zea mays, post-emergence
How it was run: as §2

velvetleaf = experiment: Test A preemergence; type: in vivo, Abutilon theophrasti
How it was run: as §1

[7] = 125 g ai/ha, 0 to 100 scale where 0 is no effect and 100 is complete control

FC(F)c1cnn(-c2ccccc2Oc2ncc(Cl)cn2)c1 [Compound 80, 5-chloro-2-[2-[4-(difluoromethyl)-1H-pyrazol-1-yl]phenoxy]pyrimidine]
pest or weed control at 125 g/ha (giant foxtail [1]; 125 g ai/ha, 0 to 100 scale where 0 is no effect and 100 is complete control, read-out: Plant response rating, Foxtail, Giant): 90%
pest or weed control at 500 g/ha (giant foxtail [1]; 500 g ai/ha, 0 to 100 scale, 0 no effect, 100 complete control, approx. 10 days, read-out: Foxtail, Giant plant response rating): 100%
pest or weed control at 125 g/ha (large (Lg) crabgrass [2]; 125 g ai/ha, 0 to 100 scale where 0 is no effect and 100 is complete control, read-out: Plant response rating, Crabgrass, Large): 100%
pest or weed control at 500 g/ha (large (Lg) crabgrass [2]; 500 g ai/ha, 0 to 100 scale, 0 no effect, 100 complete control, approx. 10 days, read-out: Crabgrass, Large plant response rating): 100%
pest or weed control at 125 g/ha (yellow nutsedge; 125 g ai/ha, postemergence, read-out: Plant response rating (0 to 100), Nutsedge, Yellow): 5%
pest or weed control at 31 g/ha (yellow nutsedge; Postemergence, 31 g ai/ha, scale 0 to 100 (0 no effect, 100 complete control), 13 to 15 days, read-out: Plant response rating, Nutsedge, Yellow): 5%
pest or weed control at 62 g/ha (yellow nutsedge; Postemergence, 62 g ai/ha, scale 0 to 100 (0 no effect, 100 complete control), read-out: Plant response rating, Nutsedge, Yellow): 5%
pest or weed control at 125 g/ha (wild oat; 125 g ai/ha, postemergence, read-out: Plant response rating (0 to 100), Oat, Wild): 10%
pest or weed control at 31 g/ha (wild oat; Postemergence, 31 g ai/ha, scale 0 to 100 (0 no effect, 100 complete control), 13 to 15 days, read-out: Plant response rating, Oat, Wild): 0%
pest or weed control at 62 g/ha (wild oat; Postemergence, 62 g ai/ha, scale 0 to 100 (0 no effect, 100 complete control), read-out: Plant response rating, Oat, Wild): 5%
pest or weed control at 16 g/ha (large (Lg) crabgrass [3]; 16 g ai/ha, postemergence, visual rating, scale 0 to 100 (0 no effect, 100 complete control), 13 to 15 days, read-out: Crabgrass, Large plant response rating): 0%
pest or weed control at 125 g/ha (large (Lg) crabgrass [3]; 125 g ai/ha, postemergence, read-out: Plant response rating (0 to 100), Crabgrass, Large): 5%
pest or weed control at 31 g/ha (large (Lg) crabgrass [3]; Postemergence, 31 g ai/ha, scale 0 to 100 (0 no effect, 100 complete control), 13 to 15 days, read-out: Plant response rating, Crabgrass, Large): 5%
pest or weed control at 62 g/ha (large (Lg) crabgrass [3]; Postemergence, 62 g ai/ha, scale 0 to 100 (0 no effect, 100 complete control), read-out: Plant response rating, Crabgrass, Large): 5%
pest or weed control at 125 g/ha (waterhemp; 125 g ai/ha, postemergence, read-out: Plant response rating (0 to 100), Waterhemp): 90%
pest or weed control at 31 g/ha (waterhemp; Postemergence, 31 g ai/ha, scale 0 to 100 (0 no effect, 100 complete control), 13 to 15 days, read-out: Plant response rating, Waterhemp): 65%
pest or weed control at 62 g/ha (waterhemp; Postemergence, 62 g ai/ha, scale 0 to 100 (0 no effect, 100 complete control), read-out: Plant response rating, Waterhemp): 70%
Johnsongrass plant response rating (johnsongrass; 16 g ai/ha, postemergence, visual rating, scale 0 to 100 (0 no effect, 100 complete control), 13 to 15 days): 0
pest or weed control at 125 g/ha (johnsongrass; Sorghum halepense, post-emergence, 125 g ai/ha, postemergence, read-out: Plant response rating (0 to 100), Johnsongrass): 5%
pest or weed control at 31 g/ha (johnsongrass; Sorghum halepense, post-emergence, Postemergence, 31 g ai/ha, scale 0 to 100 (0 no effect, 100 complete control), 13 to 15 days, read-out: Plant response rating, Johnsongrass): 0%
pest or weed control at 62 g/ha (johnsongrass; Sorghum halepense, post-emergence, Postemergence, 62 g ai/ha, scale 0 to 100 (0 no effect, 100 complete control), read-out: Plant response rating, Johnsongrass): 5%
pest or weed control at 125 g/ha (morningglory [4]; 125 g ai/ha): 90%
pest or weed control at 500 g/ha (morningglory [4]; 500 g ai/ha): 100%
pest or weed control at 16 g/ha (blackgrass; 16 g ai/ha, postemergence, visual rating, scale 0 to 100 (0 no effect, 100 complete control), 13 to 15 days, read-out: Blackgrass plant response rating): 0%
pest or weed control at 125 g/ha (blackgrass; 125 g ai/ha, postemergence, read-out: Plant response rating (0 to 100), Blackgrass): 40%
pest or weed control at 31 g/ha (blackgrass; Postemergence, 31 g ai/ha, scale 0 to 100 (0 no effect, 100 complete control), 13 to 15 days, read-out: Plant response rating, Blackgrass): 5%
pest or weed control at 62 g/ha (blackgrass; Postemergence, 62 g ai/ha, scale 0 to 100 (0 no effect, 100 complete control), read-out: Plant response rating, Blackgrass): 10%
pest or weed control at 16 g/ha (giant foxtail [5]; 16 g ai/ha, postemergence, visual rating, scale 0 to 100 (0 no effect, 100 complete control), 13 to 15 days, read-out: Foxtail, Giant plant response rating): 0%
pest or weed control at 125 g/ha (giant foxtail [5]; 125 g ai/ha, postemergence, read-out: Plant response rating (0 to 100), Foxtail, Giant): 5%
pest or weed control at 31 g/ha (giant foxtail [5]; Postemergence, 31 g ai/ha, scale 0 to 100 (0 no effect, 100 complete control), 13 to 15 days, read-out: Plant response rating, Foxtail, Giant): 5%
pest or weed control at 62 g/ha (giant foxtail [5]; Postemergence, 62 g ai/ha, scale 0 to 100 (0 no effect, 100 complete control), read-out: Plant response rating, Foxtail, Giant): 5%
pest or weed control at 16 g/ha (chickweed; 16 g ai/ha, postemergence, visual rating, scale 0 to 100 (0 no effect, 100 complete control), 13 to 15 days, read-out: Chickweed plant response rating): 50%
pest or weed control at 125 g/ha (chickweed; 125 g ai/ha, postemergence, read-out: Plant response rating (0 to 100), Chickweed): 70%
pest or weed control at 31 g/ha (chickweed; Postemergence, 31 g ai/ha, scale 0 to 100 (0 no effect, 100 complete control), 13 to 15 days, read-out: Plant response rating, Chickweed): 60%
pest or weed control at 62 g/ha (chickweed; Postemergence, 62 g ai/ha, scale 0 to 100 (0 no effect, 100 complete control), read-out: Plant response rating, Chickweed): 65%
pest or weed control at 125 g/ha (Italian ryegrass; 125 g ai/ha, postemergence, read-out: Plant response rating (0 to 100), Ryegrass, Italian): 5%
pest or weed control at 31 g/ha (Italian ryegrass; Postemergence, 31 g ai/ha, scale 0 to 100 (0 no effect, 100 complete control), 13 to 15 days, read-out: Plant response rating, Ryegrass, Italian): 0%
pest or weed control at 62 g/ha (Italian ryegrass; Postemergence, 62 g ai/ha, scale 0 to 100 (0 no effect, 100 complete control), read-out: Plant response rating, Ryegrass, Italian): 20%
Plant response rating, Morningglory (morningglory [6]; [7]): 30
pest or weed control at 500 g/ha (morningglory [6]; Ipomoea, pre-emergence, 240 h, 500 g ai/ha, 0 to 100 scale, 0 no effect, 100 complete control, approx. 10 days, read-out: Morningglory plant response rating): 80%
plant injury at 16 g/ha (corn; 16 g ai/ha, postemergence, visual rating, scale 0 to 100 (0 no effect, 100 complete control), 13 to 15 days, read-out: Corn plant response rating): 0%
plant injury at 125 g/ha (corn; 125 g ai/ha, postemergence, read-out: Plant response rating (0 to 100), Corn): 5%
Corn plant response rating (crop injury, 0 = no effect, 100 = complete kill) at 31 g/ha (corn; Postemergence, 31 g ai/ha, scale 0 to 100 (0 no effect, 100 complete control), 13 to 15 days): 0%
Corn plant response rating (crop injury, 0 = no effect, 100 = complete kill) at 62 g/ha (corn; Postemergence, 62 g ai/ha, scale 0 to 100 (0 no effect, 100 complete control)): 5%
Plant response rating, Velvetleaf (velvetleaf; [7]): 80
pest or weed control at 500 g/ha (velvetleaf; Abutilon theophrasti, pre-emergence, 240 h, 500 g ai/ha, 0 to 100 scale, 0 no effect, 100 complete control, approx. 10 days, read-out: Velvetleaf plant response rating): 90%
